Consider 17 compounds from ChEMBL document CHEMBL1201862, “PubChem BioAssay data set” (2004).

Broadly, the IC50 is the point on the concentration scale where inhibition reaches its midpoint. A word on the EC50: it is the midpoint of the concentration-response curve. What is called CC50 is the concentration at which the toxic effect on the cells reaches its halfway point. Broadly, the Ki is a dissociation constant, usually derived from enzyme kinetics or from competition with a known ligand.

The source made the active and inactive calls.

In assay [1] the target is T1, Voltage-gated N-type calcium channel alpha-1B subunit/Amyloid beta A4 precursor protein-binding family A member 1 (Homo sapiens, UniProt Q00975+Q02410). Type of assay: protein assay.
The target in assay [2] is T1, Voltage-gated N-type calcium channel alpha-1B subunit/Amyloid beta A4 precursor protein-binding family A member 1. Format: protein assay. This is another data set of the same source.
Assay [3] is described as follows: A cytotoxicity screen of small molecule inhibitors of the PhoP region in Salmonella typhi identified in the primary screen. [Related pubchem assays: 1850, 1864, 1985 ]. Type of assay: functional.
The target of assay [4] is T2, Epstein-Barr nuclear antigen 1 (Epstein-Barr virus (strain B95-8) (HHV-4) (Human herpesvirus 4), UniProt P03211).
T2 sequence (P03211 whole entry): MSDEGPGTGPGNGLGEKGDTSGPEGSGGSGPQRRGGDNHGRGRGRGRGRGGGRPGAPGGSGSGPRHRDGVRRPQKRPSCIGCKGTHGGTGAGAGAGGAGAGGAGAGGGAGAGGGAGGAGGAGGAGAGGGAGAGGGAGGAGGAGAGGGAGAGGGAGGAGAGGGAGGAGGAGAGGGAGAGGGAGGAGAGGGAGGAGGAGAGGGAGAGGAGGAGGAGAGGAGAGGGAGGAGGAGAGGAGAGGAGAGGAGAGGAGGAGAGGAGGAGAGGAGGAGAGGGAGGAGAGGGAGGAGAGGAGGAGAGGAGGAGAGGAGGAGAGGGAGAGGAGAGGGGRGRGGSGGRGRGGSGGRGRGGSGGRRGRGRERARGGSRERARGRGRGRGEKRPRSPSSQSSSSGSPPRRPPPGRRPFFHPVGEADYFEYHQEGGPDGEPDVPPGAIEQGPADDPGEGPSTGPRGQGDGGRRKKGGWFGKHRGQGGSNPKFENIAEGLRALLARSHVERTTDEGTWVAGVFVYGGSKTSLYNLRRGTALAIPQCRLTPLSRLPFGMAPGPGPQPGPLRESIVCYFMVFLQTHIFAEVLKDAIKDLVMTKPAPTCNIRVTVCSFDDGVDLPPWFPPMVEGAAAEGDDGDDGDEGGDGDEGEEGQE
Briefly: inhibition of EBV nuclear antigen 1 DNA binding – biochemical, fluorescence polarization, 1536-well, dose response (AID 2381).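 Note: fluorescence polarization of a Cy5 DNA probe bound by EBNA-1 protein.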 On the set-up: species or system human gammaherpesvirus 4. Background: Fluorescence polarisation rises when a labelled molecule tumbles more slowly, as on binding a larger partner.

Assay [5] addresses T3, Lytic switch protein BZLF1 (Epstein-Barr virus (strain B95-8) (HHV-4) (Human herpesvirus 4), UniProt P03206).
T3 sequence (P03206 whole entry): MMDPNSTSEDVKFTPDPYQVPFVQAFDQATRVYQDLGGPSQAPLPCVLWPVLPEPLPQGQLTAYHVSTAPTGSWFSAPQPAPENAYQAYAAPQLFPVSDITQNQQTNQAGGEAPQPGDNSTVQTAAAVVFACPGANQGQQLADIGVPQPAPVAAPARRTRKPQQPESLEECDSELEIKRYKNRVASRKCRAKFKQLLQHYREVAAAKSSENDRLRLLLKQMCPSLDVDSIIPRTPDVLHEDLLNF
Briefly: inhibition of BZLF1 ZTA DNA binding – biochemical, fluorescence polarization, Epstein-Barr virus, 1536-well, counter-screen for EBNA-1 inhibitor project, dose response (AID 2377).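 Note: fluorescence polarization of Cy5-labelled ZRE DNA probe bound by purified Zta.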 More on the design: species or system human gammaherpesvirus 4.

The subject of the next assay is H9c2. In words: cells. Type of assay: functional, cell-based. Conditions: Rattus norvegicus, H9c2, Myocardium.
Assay [6] concerns the target T4, Short transient receptor potential channel 4 (Mus musculus, UniProt Q9QUQ5).
T4 sequence (Q9QUQ5 whole entry): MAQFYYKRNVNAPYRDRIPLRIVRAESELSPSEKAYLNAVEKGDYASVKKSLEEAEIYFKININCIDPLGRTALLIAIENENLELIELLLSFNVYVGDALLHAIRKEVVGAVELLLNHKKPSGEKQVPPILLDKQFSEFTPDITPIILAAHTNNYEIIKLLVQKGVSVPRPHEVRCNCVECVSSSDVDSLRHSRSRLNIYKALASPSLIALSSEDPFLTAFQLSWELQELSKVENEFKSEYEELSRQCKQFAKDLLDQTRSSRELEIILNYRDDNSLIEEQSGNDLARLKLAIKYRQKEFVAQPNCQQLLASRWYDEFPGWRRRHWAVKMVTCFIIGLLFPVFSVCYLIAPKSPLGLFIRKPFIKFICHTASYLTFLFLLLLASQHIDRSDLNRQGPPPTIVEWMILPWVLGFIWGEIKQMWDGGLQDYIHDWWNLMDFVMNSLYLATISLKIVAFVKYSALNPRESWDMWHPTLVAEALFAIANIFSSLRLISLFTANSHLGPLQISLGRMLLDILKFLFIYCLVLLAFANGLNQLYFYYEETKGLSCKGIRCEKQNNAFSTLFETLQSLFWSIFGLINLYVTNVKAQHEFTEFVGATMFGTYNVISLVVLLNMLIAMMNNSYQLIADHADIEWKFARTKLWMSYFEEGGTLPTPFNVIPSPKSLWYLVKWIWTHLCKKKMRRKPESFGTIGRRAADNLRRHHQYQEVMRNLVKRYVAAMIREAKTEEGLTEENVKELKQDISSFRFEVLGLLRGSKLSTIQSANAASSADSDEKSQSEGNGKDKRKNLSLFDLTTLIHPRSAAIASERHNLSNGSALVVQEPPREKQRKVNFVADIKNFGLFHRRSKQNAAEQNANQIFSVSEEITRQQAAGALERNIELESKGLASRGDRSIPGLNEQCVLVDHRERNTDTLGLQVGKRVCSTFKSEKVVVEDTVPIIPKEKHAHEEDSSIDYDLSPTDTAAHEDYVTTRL
Briefly: block of DAMGO-driven TRPC4 calcium entry – cell-based, HEK293 TRPC4/mu-opioid, Fluo-4 calcium, dose response (AID 434942).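 Note: potency of inhibitors blocking the TRPC4 calcium response.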 Type of assay: functional.

Assay [7] has as its target Eukaryotic translation initiation factor 4E (Mus musculus, UniProt P63073). Briefly: blockers of eIF4G binding by eIF4E – biochemical, TR-FRET, dose response (AID 855).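 Note: potency for disrupting eIF4E binding to eIF4GI seen as loss of FRET.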 Type of assay: functional.
A short description of assay [8]: A Cell Based Secondary Assay To Explore Cytotoxicity of Compounds that Sensitize Mycobacterium Tuberculosis to Beta-Lactam Antibiotics. Format: functional.
Assay [9] is described as follows: Trypanosoma cruzi growth suppression in host cells – NIH3T3 host cells, beta-gal luminescence, confirmation (AID 2044).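 Note: intracellular parasites grown in NIH/3T3 mouse fibroblasts as host cells; luminescent beta-galactosidase reporter signal from transgenic T. cruzi replicating inside host cells; inhibitors lower the luminescence signal.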 Type of assay: functional, cell-based.
The nature of assay [10]: NIH3T3 cell viability loss – ATP luminescence, mouse fibroblasts, counter-screen, dose response (AID 2010).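 Note: cells exposed to compound for about 90 hours before reading.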 Format: functional, cell-based. On the technique in general: The purpose of a counterscreen is to sort out artefacts and off-target activity.
The target in assay [11] is Induced myeloid leukemia cell differentiation protein Mcl-1 (Homo sapiens, UniProt Q07820). Format: functional.
Assay [12] is described as follows: Luminescence Cell-Based Dose Confirmation HTS to Identify Activators of 5'UTR Stem-Loop Driven Alpha-Synuclein mRNA Translation in H4 Neuroglioblastoma Cells. [Related pubchem assays: 1829 (Project Summary), 1814 (Primary HTS)]. Type of assay: functional.
The nature of assay [13]: Luminescence Cell-Based Dose Response HTS to Identify Activators of Luciferase Translation or Activity in H4 […] Cells. [Related pubchem assays: 1829 (Project Summary), 1814 (Primary HTS)]. Format: functional.
In another assay the test system is H4. In words: Luminescence Cell-Based Dose Response HTS to Identify Activators of 5'UTR Stem-Loop Driven Prion Protein mRNA Translation in H4 Neuroglioblastoma Cells. [Related pubchem assays: 1829 (Project Summary), 1814 (Primary HTS)]. Format: functional. Particulars: Homo sapiens.
In another assay the target is T5, Estrogen receptor (Homo sapiens, UniProt P03372).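 Note: potency for inhibiting coactivator peptide recruitment to the receptor.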
T5 sequence (P03372 whole entry): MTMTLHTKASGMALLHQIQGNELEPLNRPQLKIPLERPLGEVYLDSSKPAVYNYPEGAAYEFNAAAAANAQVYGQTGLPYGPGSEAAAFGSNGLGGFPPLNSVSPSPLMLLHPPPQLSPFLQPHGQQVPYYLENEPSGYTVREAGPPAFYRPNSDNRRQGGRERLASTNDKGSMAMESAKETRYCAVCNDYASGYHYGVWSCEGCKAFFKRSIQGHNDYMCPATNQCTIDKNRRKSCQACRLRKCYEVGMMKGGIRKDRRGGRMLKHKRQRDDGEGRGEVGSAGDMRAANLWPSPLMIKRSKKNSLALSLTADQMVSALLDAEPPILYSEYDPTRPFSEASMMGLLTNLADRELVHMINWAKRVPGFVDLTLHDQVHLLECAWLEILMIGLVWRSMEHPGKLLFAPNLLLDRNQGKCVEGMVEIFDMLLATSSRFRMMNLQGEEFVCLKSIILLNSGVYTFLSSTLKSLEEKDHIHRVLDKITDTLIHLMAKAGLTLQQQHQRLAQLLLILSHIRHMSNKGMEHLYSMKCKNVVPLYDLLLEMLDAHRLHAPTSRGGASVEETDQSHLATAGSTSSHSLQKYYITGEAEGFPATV

For the next assay, the target named is T6, fMet-Leu-Phe receptor (Homo sapiens, UniProt P21462).
T6 sequence (P21462 whole entry): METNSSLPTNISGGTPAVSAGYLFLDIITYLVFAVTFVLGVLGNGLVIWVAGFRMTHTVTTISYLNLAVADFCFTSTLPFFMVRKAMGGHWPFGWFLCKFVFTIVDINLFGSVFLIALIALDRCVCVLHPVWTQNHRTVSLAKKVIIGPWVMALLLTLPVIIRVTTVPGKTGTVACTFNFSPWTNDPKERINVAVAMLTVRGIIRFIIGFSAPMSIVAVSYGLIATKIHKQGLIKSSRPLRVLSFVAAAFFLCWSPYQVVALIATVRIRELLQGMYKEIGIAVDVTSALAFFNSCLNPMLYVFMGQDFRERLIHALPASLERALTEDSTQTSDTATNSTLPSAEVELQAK
Briefly: formyl peptide receptor binders – dose response (AID 519). Type of assay: functional.

T1 sequence (Q00975 whole entry): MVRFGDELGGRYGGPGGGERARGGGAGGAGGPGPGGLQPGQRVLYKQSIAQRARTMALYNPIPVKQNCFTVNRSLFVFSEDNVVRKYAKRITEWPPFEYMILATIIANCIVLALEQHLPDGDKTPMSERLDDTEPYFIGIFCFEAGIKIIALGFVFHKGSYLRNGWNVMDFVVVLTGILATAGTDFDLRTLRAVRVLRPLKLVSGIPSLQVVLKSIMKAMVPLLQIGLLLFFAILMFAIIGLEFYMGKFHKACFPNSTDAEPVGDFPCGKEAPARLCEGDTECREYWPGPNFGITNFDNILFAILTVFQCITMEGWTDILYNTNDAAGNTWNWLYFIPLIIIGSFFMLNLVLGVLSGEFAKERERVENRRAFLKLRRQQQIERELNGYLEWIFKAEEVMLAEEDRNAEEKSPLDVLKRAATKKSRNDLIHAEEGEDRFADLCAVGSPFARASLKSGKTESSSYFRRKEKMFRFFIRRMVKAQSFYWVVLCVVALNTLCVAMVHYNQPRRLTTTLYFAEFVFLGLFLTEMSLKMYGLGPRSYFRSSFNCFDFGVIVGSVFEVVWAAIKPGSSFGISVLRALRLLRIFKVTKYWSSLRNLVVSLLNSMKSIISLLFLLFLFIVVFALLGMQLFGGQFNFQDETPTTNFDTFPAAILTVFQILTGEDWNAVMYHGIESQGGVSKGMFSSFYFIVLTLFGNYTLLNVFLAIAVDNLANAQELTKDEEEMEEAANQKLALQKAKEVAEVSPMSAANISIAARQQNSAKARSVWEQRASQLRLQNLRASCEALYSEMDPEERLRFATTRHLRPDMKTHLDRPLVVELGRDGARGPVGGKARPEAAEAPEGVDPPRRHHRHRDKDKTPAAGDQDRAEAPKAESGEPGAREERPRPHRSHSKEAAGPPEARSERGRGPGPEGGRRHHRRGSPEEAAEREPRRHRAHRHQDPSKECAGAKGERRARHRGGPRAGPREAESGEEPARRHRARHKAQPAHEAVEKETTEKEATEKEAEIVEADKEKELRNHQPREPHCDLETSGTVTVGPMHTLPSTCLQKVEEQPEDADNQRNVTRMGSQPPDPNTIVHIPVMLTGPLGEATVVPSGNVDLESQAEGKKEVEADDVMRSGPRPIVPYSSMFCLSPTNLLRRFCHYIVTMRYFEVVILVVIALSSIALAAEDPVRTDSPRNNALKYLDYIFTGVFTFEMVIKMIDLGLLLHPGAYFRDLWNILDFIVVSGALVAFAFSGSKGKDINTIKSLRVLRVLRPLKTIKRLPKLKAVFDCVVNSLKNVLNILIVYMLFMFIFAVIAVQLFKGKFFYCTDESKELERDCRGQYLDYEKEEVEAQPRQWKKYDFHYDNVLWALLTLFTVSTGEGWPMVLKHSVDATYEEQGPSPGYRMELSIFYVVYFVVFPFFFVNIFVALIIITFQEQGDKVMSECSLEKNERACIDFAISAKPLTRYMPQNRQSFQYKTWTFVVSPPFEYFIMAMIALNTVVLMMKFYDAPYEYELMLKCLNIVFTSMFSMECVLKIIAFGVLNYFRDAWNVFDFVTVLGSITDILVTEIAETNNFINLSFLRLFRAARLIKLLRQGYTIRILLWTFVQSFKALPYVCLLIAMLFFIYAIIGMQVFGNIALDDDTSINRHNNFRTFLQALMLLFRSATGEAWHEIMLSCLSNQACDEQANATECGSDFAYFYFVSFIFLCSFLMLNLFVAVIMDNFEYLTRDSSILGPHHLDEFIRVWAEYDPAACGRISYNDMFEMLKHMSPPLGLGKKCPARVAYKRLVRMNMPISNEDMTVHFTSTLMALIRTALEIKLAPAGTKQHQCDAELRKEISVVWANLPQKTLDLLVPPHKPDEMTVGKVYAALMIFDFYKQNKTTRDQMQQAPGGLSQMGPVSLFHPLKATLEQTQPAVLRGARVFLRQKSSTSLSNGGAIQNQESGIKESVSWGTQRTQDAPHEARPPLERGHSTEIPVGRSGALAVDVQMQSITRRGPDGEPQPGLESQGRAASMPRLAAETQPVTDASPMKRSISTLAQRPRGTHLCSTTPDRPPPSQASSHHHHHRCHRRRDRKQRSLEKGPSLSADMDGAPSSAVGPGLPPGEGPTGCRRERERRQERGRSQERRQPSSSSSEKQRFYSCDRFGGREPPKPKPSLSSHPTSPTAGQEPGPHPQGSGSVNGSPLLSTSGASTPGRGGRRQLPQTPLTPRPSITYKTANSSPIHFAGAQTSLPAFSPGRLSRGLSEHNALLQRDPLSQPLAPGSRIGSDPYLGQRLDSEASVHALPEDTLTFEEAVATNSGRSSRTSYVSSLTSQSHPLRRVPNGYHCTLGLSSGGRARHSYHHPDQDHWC
T1 sequence (Q02410 whole entry): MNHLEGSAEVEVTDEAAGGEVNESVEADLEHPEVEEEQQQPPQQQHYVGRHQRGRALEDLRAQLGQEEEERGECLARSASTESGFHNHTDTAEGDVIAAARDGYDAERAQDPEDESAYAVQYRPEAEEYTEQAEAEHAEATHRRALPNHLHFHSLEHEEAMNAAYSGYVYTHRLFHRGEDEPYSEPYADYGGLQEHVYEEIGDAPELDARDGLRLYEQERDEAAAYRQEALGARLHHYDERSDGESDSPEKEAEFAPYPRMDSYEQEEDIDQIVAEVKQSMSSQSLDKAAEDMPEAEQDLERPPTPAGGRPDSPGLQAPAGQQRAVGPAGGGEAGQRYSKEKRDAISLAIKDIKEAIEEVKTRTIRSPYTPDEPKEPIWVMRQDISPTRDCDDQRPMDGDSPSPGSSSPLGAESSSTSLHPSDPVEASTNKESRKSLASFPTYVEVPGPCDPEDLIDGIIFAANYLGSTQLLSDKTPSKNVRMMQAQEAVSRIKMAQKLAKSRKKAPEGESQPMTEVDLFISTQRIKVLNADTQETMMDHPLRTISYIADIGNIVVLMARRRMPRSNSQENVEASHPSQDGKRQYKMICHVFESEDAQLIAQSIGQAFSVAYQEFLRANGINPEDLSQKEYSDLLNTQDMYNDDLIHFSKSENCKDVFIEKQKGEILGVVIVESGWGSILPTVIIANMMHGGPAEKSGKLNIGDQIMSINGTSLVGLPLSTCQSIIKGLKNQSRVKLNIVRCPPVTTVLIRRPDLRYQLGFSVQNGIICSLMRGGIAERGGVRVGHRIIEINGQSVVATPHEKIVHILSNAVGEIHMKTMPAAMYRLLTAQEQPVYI
Eukaryotic translation initiation factor 4E, sequence (P63073 whole entry): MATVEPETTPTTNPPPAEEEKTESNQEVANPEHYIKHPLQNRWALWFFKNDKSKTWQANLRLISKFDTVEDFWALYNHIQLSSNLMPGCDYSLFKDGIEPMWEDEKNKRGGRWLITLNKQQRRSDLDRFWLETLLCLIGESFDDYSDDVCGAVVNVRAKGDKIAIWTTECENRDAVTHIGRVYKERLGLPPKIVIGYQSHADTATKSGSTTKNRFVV
Induced myeloid leukemia cell differentiation protein Mcl-1, sequence (Q07820 whole entry): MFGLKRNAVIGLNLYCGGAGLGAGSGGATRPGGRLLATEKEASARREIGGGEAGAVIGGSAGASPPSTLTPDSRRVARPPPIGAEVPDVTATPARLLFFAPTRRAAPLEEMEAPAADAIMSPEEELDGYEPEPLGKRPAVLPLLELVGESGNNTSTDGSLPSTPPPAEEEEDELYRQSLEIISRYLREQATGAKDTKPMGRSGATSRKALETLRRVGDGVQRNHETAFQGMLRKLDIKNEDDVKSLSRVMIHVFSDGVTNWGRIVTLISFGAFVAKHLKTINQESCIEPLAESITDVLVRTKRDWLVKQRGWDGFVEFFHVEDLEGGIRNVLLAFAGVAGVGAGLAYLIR

Consider `COc1ccc(/C=C2\SC(=S)N(CC(=O)NNC(=O)c3ccncc3)C2=O)cc1`, for which the IC50 is > 56.8 µM (not active) in assay [1] and > 50 µM (inactive) in assay [2]. The matching figures for `C/C=C/C=C\C(=O)Nc1cccc(C2=NOC3(C2)C[C@H](C(N)=O)N(C(=O)/C=C/C)C3)c1` (some centres not stated): 9.88 µM (active) and 6.79 µM (active).

Take `C/C(=N\NC(=O)c1c(Br)c(C)nn1C)c1ccc(NC(=O)c2ccoc2C)cc1`: the EC50 in assay [3] is > 50 µM (active). In addition, the IC50 is 15.7 µM (not active) in assay [4], > 111 µM (not active) in [5] and > 79 µM (inactive) with H9c2.

For the compound `Cc1cccc(NC(=S)NC2CCCCC2)n1`, the results for the IC50 in assay [1] and in [2] were 9.58 µM (active) and > 50 µM (inactive), respectively.

Consider `COC/C=C/C1=CC2=CC(=O)C(C)(OC(=O)c3cnc4ccccc4n3)C(=O)C2=CN1c1ccc(CO)cc1` (configuration not stated), for which the IC50 in [1] is 10.4 µM (active); in [2], 11.2 µM (active). Take `CC12CC3(C)CC(C)(C1)CC(NC(=O)N1CCCC1)(C2)C3`: the 50% effective concentration (EC50) in [6] is 7.5 µM (active).

`COc1ccc(S(=O)(=O)N2CCC(C(=O)NCc3cccc(OC)c3)CC2)cc1`: the IC50 in assay [7] is > 64 µM (inactive). As to `CCCCn1cnc2cc(NCc3cccc(OC)c3O)ccc21`, in assay [3], the EC50 was > 50 µM (active). Regarding `COc1ccc(CCNC2CCCCC2)cc1`, in [3], the EC50 is > 50 µM (active).

As for `COc1ccc(C2CC2/C(=N/O)c2ccccc2)cc1` (configuration not stated), the EC50 in assay [6] was 2.99 µM (active). On to `Cc1ccc2[nH]c(O)c(N=Nc3nc4ccccc4s3)c2c1`, for which the CC50 in assay [8] is 39.6 µM (active). The EC50 in [9] is 3.38 µM (active); in [10], > 60 µM (not active). Moreover, the IC50 in assay [11] is 2.11 µM (active).

As to `COc1ccc(CNC2=NC(=O)CC(C(=O)Nc3ccc(F)cc3)S2)cc1` (configuration not stated), the IC50 in assay [7] is > 64 µM (inactive).

In the case of `O=C(Nc1ccnn1C1CCN(CCCC2CCCC2)CC1)c1ccccc1Cl`, in assay [6], the EC50 is 1.68 µM (active). Regarding `CCOC(=O)c1ccc(N2Cc3ccccc3/C2=N\C(=O)c2cccc([N+](=O)[O-])c2)cc1`, the EC50 in assay [3] was > 50 µM (active); in assay [12], 39.1 µM (active); in assay [13], 12.3 µM (active); in the assay with H4, 6.09 µM (active). On to `N#Cc1c(C(F)(F)F)cc(-c2ccccc2)nc1SCc1nc(N)nc(N2CCOCC2)n1`, for which, in assay [8], the 50% cytotoxic concentration (CC50) was > 40 µM (active). Further, on Estrogen receptor, the IC50 was > 50 µM (not active). Besides, at fMet-Leu-Phe receptor, the Ki is > 66.7 µM (inactive).

In the case of `CSc1ccccc1NC(=O)c1ccccc1C`, the IC50 in assay [7] was 50 µM (inactive). Turning to `COc1ccc(Sc2nc(-c3ccccc3)ncc2C(=O)O)cc1`, the concentration giving a half-maximal response (EC50) in [6] was 5.96 µM (active).
